# Measured values as given in patent US20260240792A1, “COMPOSITIONS FOR TREATING 5-HT2 CONDITIONS AND METHODS OF USING THE SAME” (Board of Supervisors of Louisiana State University and …, priority 2022, published 2026).
# Values joined by “and” are separate entries in the source; they are usually repeats but may differ in a detail not shown here. Identical values can stand only once. “Also recorded” adds a separate entry of the source.
# Tests used:
# [1] = Weight changes across 1 week of dosing; assay type: in vivo, rabbit
# [2] = tested on: rabbits; assay: Topical ocular dosing in rabbits: observation of CNS, systemic, ocular and behavioral effects, ocular tolerability; assay type: in vivo, rabbit; details: for adverse events on repeated dosing / threshold dose for inducing systemic effects and minimal undesirable events: 50 μl per eye; for adverse events on repeated dosing: 2 times on day 1 then 4 times per day for 3 days
# Protocol: Apparent Ocular Irritability • b. Induction of Inflammation • c. Reduction of Corneal Barrier Integrity • d. Dry Eye or Excessive Tearing • e. Induction of Neovascularization • f. Induction of Scleral Reddening
# Parameters Assessed during 2 hour Observation Window (see, for example, FIG. 1):
# Two studies were performed to determine at what dose between 0.01% and 0.1% were behavioral and/or systemic effects observed. 50 μL doses at 0.01%, 0.05%, and 0.075% per eye applied and assessments were made as indicated herein.
# The application of most topical eye drops requires repeatedly dosing up to 9 times per day in order to maintain efficacy across the course of waking hours and have efficacious levels available during sleeping hours. The effects of repeated ocular dosing of R-DOI were assessed in a similar manner as described herein, with the exception that doses of 0.01% or 0.05% were applied repeatedly as outlined herein:
# Animals from the acute dosing were continued through the repeated dosing study. Animals were dosed at the indicated concentration 2 times on day 1 and then dosed 4 times per day for 3 subsequent days. Doses were administered at 50 μl per eye into both eyes of the animal.
# Rabbits were assessed for clinically clear eyes by slit lamp ophthalmic scoring. All eyes of all rabbits were normal.
# Following balancing animals were treated with 50 μL of Control ophthalmic BSS/0.5% CMC or 0.01% Compound 1 in ophthalmic BSS/0.5% CMC.
# Any behavioral changes were continuously monitored over the next 2.5 hours (FIG. 3).
# We can determine if a single dose of the ocular composition of 0.01% R-DOI with 0.5% carboxymethylcellulose in ophthalmic BSS: • 1. Reproduced previous findings that R-DOI had IOP depressing effects. • 2. Produced any readily observable behavioral effects. • 3. Was tolerated by the eye without adverse ocular effects, including absence of: • a. Apparent Ocular Irritability • b. Induction of Inflammation • c. Dry Eye or Excessive Tearing • d. Induction of Scleral Reddening • 4. Reduced IOP • 5. Maintained Reduction in IOP • 6. Increased Tear Film Production
# (§1) • Rabbits were assessed for clinically clear eyes by slit lamp ophthalmic scoring. All eyes of all rabbits were normal. • Each eye of each rabbit was then assessed for initial IOP by tonometer. • Each eye of each rabbit was assessed for tear film production by Schirmer's Tear Flo Strips at a 30 second interval of analysis. Tear measures were evaluated by a digital caliper to determine mm of tears collected. • Rabbits were sorted into two groups attempting to balance IOP numbers (one higher, one lower animal per group). • Following animals were treated with 50 μL of Control ophthalmic BSS/0.5% CMC or 0.01% R-DOI HCl in ophthalmic BSS/0.5% CMC. • Any apparent behavioral changes were continuously monitored over the next 2.5 hours. • IOP determinations were made at 30 minutes, 1 hour, 2 hours and 3 hours, 5 hours, 7 hours and 24 hours-eyes were examined closely for any adverse effects during these IOP measures. • 7 hours post treatment when IOP returned to control levels tear film production was assessed (see, for example, FIG. 9).
# [3] = tested on: rabbits; assay: Tear film production by Schirmer's Tear Flo Strips in rabbits; assay type: in vivo, rabbit
# Protocol: Each eye of each rabbit was assessed for tear film production by Schirmer's Tear Flo Strips at a 30 second interval of analysis. Tear measures were evaluated by a digital caliper to determine mm of tears collected.
# 3 days post treatment at the same time initial measures were made, IOP and tear film production were re-assessed to examine if effects were sustained post 1 treatment.
# (§2) Effects of Compound 1 on Tear Production: Current IOP lowering glaucoma drugs eventually have effects on tear production resulting in dry eye conditions. Further, there are additional associations between dry eye and glaucoma, with co-incidence of the two conditions quite common. […] Selective 5-HT agonists/antagonists can reverse symptoms of dry eye-a very large ophthalmic market. The effects of Compound 1 on tear film production (see, for example, FIG. 6 panels A-D) were therefore assessed by a Schirmer's Tear Flo strip and measured using a digital micrometer caliper.
# as §1
# as §2, with “R-DOI” for “Compound 1”, “conditions” for “conditions quite”, “production” for “production (see, for example, FIG. 6 panels A-D)”
# [4] = Solubility in ophthalmic eye drop (BSS, 0.5% CMC); assay type: physicochemical; details: 0.1% (5 mg/5 mL) in BSS with 0.5% CMC, pH 7.0
# Protocol: Non-Limiting, Exemplary Findings Discussed within: • The NCE Compound 1 was formulated within an ophthalmic eye drop with BSS and 0.5% carboxymethylcellulose (CMC) at percentages of 0.1% (5 mg/5 ml) and lower with a pH of 7.0.
# • The R-DOI HCl was formulated within an ophthalmic eye drop with BSS and 0.5% carboxymethylcellulose (CMC) at percentages of 0.1% (5 mg/5 mL) and lower with a pH of 7.0.
# [5] = 0.01% (1 dose/day day 1, 2 dose/day day 2, 4 dose/day days 3-5)
# [6] = 0.1% day 1, then 0.05% (2 dose/day day 2, 4 dose/day days 3-5)
# [7] = 0.075%, 50 μL per eye, both eyes, single dose
# [8] = 0.075%, 50 μL per eye, both eyes, single dose, listed as R-DOI HCl
# [9] = 0.1%, 50 μL per eye, both eyes, single dose
# [10] = 0.1%, 50 μL per eye, both eyes, single dose, 2 hour observation
# [11] = 0.1%, 50 μL per eye, both eyes, single dose, 2 hour observation, listed as R-DOI HCl
structure (smiles),measurement,setting,value
"COc1cc(C[C@@H](C)N)c(OC)cc1I [R-DOI, (R)-1-(2,5-dimethoxy-4-iodophenyl)-2-aminopropane]",1 week weight,[1]; [5],3.17 kg and 2.89 kg
same,1 week weight change,[1]; [5],0.11 and 0.07
same,weight with repeated dosing,"[1]; 0.01% or 0.05% repeated dosing, 1 week",no loss of weight with repeated dosing
same,1 week weight,[1]; [6],2.96 kg and 2.79 kg
same,1 week weight change,[1]; [6],0.08 and 0.09
same,"ocular tolerability of ophthalmic drops (irritability, dry eye or tearing, corneal damage, inflammation, neovascularization)","[2]; 0.01% or 0.05%, repeated dosing, listed as R-DOI HCl","tolerated with no signs or symptoms of irritability; also recorded: Neither signs of dry eye nor excessive tear production was observed; also recorded: no damage to corneal surfaces, barrier intactness, inflammation, or neovascularization"
same,"adverse events (ocular, systemic, behavioral or otherwise)","[2]; 0.01%, 50 μL per eye, both eyes, single dose",No observable changes; also recorded: no apparent adverse events
same,"adverse events (ocular, systemic, behavioral or otherwise)","[2]; 0.01%, 50 μL per eye, both eyes, single dose, listed as R-DOI HCl",no adverse or abnormal events observed
same,adverse events on repeated dosing,"[2]; 0.01%, both eyes",did not cause any adverse events; also recorded: No observable changes
same,adverse events on repeated dosing,"[2]; 0.01%, both eyes, listed as R-DOI HCl",no adverse or abnormal events observed
same,"acute ocular toxicity, irritability or adverse ocular reactions","[2]; 0.01%, acute single dosing","did not exhibit any acute ocular toxicity, irritability, or adverse ocular reactions"
same,"adverse events (ocular, systemic, behavioral or otherwise)","[2]; 0.05%, 50 μL per eye, both eyes, single dose",No adverse events; also recorded: No observable changes
same,"adverse events (ocular, systemic, behavioral or otherwise)","[2]; 0.05%, 50 μL per eye, both eyes, single dose, listed as R-DOI HCl",no adverse or abnormal events observed
same,adverse events on repeated dosing,"[2]; 0.05%, both eyes",did not cause any adverse events; also recorded: No observable changes
same,adverse events on repeated dosing,"[2]; 0.05%, both eyes, listed as R-DOI HCl",no adverse or abnormal events observed
same,"adverse events (ocular, systemic, behavioral or otherwise)",[2]; [7],"No adverse events; also recorded: No CNS, Ocular Behavioral or Systemic Changes"
same,pupil dilation/contraction (miosis),[2]; [7],Slight Miosis can be observed in E10 and E11
same,"adverse events (ocular, systemic, behavioral or otherwise)",[2]; [8],no adverse CNS or systemic events observed
same,pupil dilation/contraction (miosis),[2]; [8],Slight but transient miosis was evident in 2 animals
same,time for miosis to resolve to normal after initial observation,"[2]; 0.075%, single dose, 2 animals",≤ 15 min
same,onset of symptoms,[2]; [9],20 min
same,time post treatment at which observed effects were cleared,[2]; [9],cleared by one hour post administration and 1 hour to 2 hour post: Regained Responsiveness; Breathing Normal; Pupils Normal
same,CNS associated behavioral effects,[2]; [10],only slight CNS associated behavioral effects were noted; also recorded: Lethargy; also recorded: Head twitch?
same,pupil dilation/contraction (miosis),[2]; [10],miosis or contraction of the pupil; also recorded: Miosis obvious (pupil contracted)
same,systemic effects (respiration and heart rate),[2]; [10],increased respiration and heart rate were noted; also recorded: Increased breathing and Heartrate
same,CNS associated behavioral effects,[2]; [11],minimal to no head bobs/twitches observed
same,systemic effects (respiration and heart rate),[2]; [11],obvious increased respiration and heart rates
same,time post treatment at which observed effects were cleared,"[2]; 0.1%, 50 μL per eye, both eyes, single dose, listed as R-DOI HCl",approximately 1 hour
same,threshold dose for inducing systemic effects and minimal undesirable events,[2]; both eyes,greater than 0.075%
same,threshold dose for inducing systemic effects and minimal undesirable events,"[2]; both eyes, listed as R-DOI HCl",0.1%
same,systemic and behavioral threshold concentration for delivery,[2]; delivered as a 50 μL drop of 0.1% ophthalmic solution to both eyes,≥ 100 total micrograms per animal
same,"acute ocular toxicity, irritability or adverse ocular reactions","[2]; topical eye drop, acute single dosing and repeated dosing trials","did not exhibit any acute ocular toxicity, irritability or adverse ocular reactions"
same,average increase in tear film production,"[3]; 0.01% single dose, 7 h post treatment",2.27 mm
same,tear production as measured by Schirmer's test,[3]; topical ocular dose,increased tear production relative to initial and control treatment; also recorded: significant increase in tear production
same,Solubility of the compound,[4],good with no remaining precipitates
